Source: ChEMBL document CHEMBL1201862, “PubChem BioAssay data set” (2004)
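The compound was tested at five concentrations on cells cultured in 96-well plates, with a 48-hour exposure period. Here, GI50 denotes the concentration required for 50% inhibition of growth.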 Calls of active or inactive are those of the source. No stated cut-off is given here; in the data, active = GI50 up to about 1.1 µM and inactive = higher.

Columns and labels:
Assay in all cases: growth of human tumour cells (NCI), 48 h
786-0 = test system: 786-0
A549 = test system: A549
ACHN = test system: ACHN
BT-549 = test system: BT-549
CAKI-1 = test system: CAKI-1
CCRF-CEM = test system: CCRF-CEM
COLO 205 = test system: COLO 205
DU-145 = test system: DU-145
EKVX = test system: EKVX
HCT-116 = test system: HCT-116
HCT-15 = test system: HCT-15
HL-60 = test system: HL-60
HOP-62 = test system: HOP-62
HOP-92 = test system: HOP-92
HT-29 = test system: HT-29
Hs-578T = test system: Hs-578T
K562 = test system: K562
KM12 = test system: KM12
LOX IMVI = test system: LOX IMVI
M14 = test system: M14
MCF7 = test system: MCF7
MDA-MB-231 = test system: MDA-MB-231
MDA-MB-435 = test system: MDA-MB-435
MDA-N = test system: MDA-N
Malme-3M = test system: Malme-3M
NCI-H226 = test system: NCI-H226
NCI-H23 = test system: NCI-H23
NCI-H460 = test system: NCI-H460
NCI/ADR-RES = test system: NCI/ADR-RES
OVCAR-3 = test system: OVCAR-3
OVCAR-4 = test system: OVCAR-4
OVCAR-5 = test system: OVCAR-5
OVCAR-8 = test system: OVCAR-8
PC-3 = test system: PC-3
RPMI-8226 = test system: RPMI-8226
SF-268 = test system: SF-268
SF-295 = test system: SF-295
SF-539 = test system: SF-539
SK-MEL-28 = test system: SK-MEL-28
SK-MEL-5 = test system: SK-MEL-5
SK-OV-3 = test system: SK-OV-3
SN12C = test system: SN12C
SNB-19 = test system: SNB-19
SR = test system: SR
SW-620 = test system: SW-620
T47D = test system: T47D
TK-10 = test system: TK-10
U-251 = test system: U-251
UACC-257 = test system: UACC-257
UACC-62 = test system: UACC-62
UO-31 = test system: UO-31
A498 = test system: A498
IGROV-1 = test system: IGROV-1
MOLT-4 = test system: MOLT-4
NCI-H522 = test system: NCI-H522
RXF 393 = test system: RXF 393
SNB-75 = test system: SNB-75

Structure (SMILES): Cc1ccc2nc(-c3ccc(N4C(=O)C(Cl)C4c4ccc(Cl)cc4)cc3)sc2c1 (stereo not given)
- GI50 (786-0): 21.9 µM (inactive)
- GI50 (A549): 17.3 µM (inactive)
- GI50 (ACHN): 22.4 µM (inactive)
- GI50 (BT-549): 36.7 µM (inactive)
- GI50 (CAKI-1): 15.5 µM (inactive)
- GI50 (CCRF-CEM): 7.94 µM (inactive)
- GI50 (COLO 205): 14.6 µM (inactive)
- GI50 (DU-145): 27.2 µM (inactive)
- GI50 (EKVX): 2.62 µM (inactive)
- GI50 (HCT-116): 21.6 µM (inactive)
- GI50 (HCT-15): 27.3 µM
- GI50 (HL-60): 29.9 µM (inactive)
- GI50 (HOP-62): 20.6 µM (inactive)
- GI50 (HOP-92): 0.137 µM (active)
- GI50 (HT-29): 1.95 µM (inactive)
- GI50 (Hs-578T): 23.3 µM (inactive)
- GI50 (K562): 24.5 µM (inactive)
- GI50 (KM12): 16.8 µM (inactive)
- GI50 (LOX IMVI): 5.35 µM (inactive)
- GI50 (M14): 21.4 µM (inactive)
- GI50 (MCF7): 14.6 µM (inactive)
- GI50 (MDA-MB-231): 13.5 µM (inactive)
- GI50 (MDA-MB-435): 17.4 µM (inactive)
- GI50 (MDA-N): 17.9 µM (inactive)
- GI50 (Malme-3M): 28.8 µM (inactive)
- GI50 (NCI-H226): 13.8 µM (inactive)
- GI50 (NCI-H23): 21.6 µM (inactive)
- GI50 (NCI-H460): 21.9 µM (inactive)
- GI50 (NCI/ADR-RES): 18.5 µM (inactive)
- GI50 (OVCAR-3): 16.3 µM (inactive)
- GI50 (OVCAR-4): 1.95 µM (inactive)
- GI50 (OVCAR-5): 18.4 µM (inactive)
- GI50 (OVCAR-8): 28.5 µM (inactive)
- GI50 (PC-3): 10.5 µM (inactive)
- GI50 (RPMI-8226): 11.5 µM (inactive)
- GI50 (SF-268): 22.8 µM (inactive)
- GI50 (SF-295): 15.1 µM (inactive)
- GI50 (SF-539): 17.5 µM (inactive)
- GI50 (SK-MEL-28): 8.75 µM (inactive)
- GI50 (SK-MEL-5): 14.2 µM (inactive)
- GI50 (SK-OV-3): 12.7 µM (inactive)
- GI50 (SN12C): 19.9 µM (inactive)
- GI50 (SNB-19): 33.1 µM (inactive)
- GI50 (SR): 24.2 µM (inactive)
- GI50 (SW-620): 21.5 µM (inactive)
- GI50 (T47D): 27.8 µM (inactive)
- GI50 (TK-10): 16.4 µM (inactive)
- GI50 (U-251): 19.2 µM (inactive)
- GI50 (UACC-257): 25.1 µM (inactive)
- GI50 (UACC-62): 15.3 µM (inactive)
- GI50 (UO-31): 21.4 µM (inactive)

Structure (SMILES): CC(=O)OCC1OC(n2c3c(c(-c4ccc(C)cc4)c(C#N)c2=S)C(=O)CC(C)(C)C3)C(OC(C)=O)C(OC(C)=O)C1OC(C)=O (stereo not given)
- GI50 (786-0): 33.7 µM (inactive)
- GI50 (A498): 32.1 µM (inactive)
- GI50 (A549): 50.4 µM (inactive)
- GI50 (ACHN): 39 µM (inactive)
- GI50 (BT-549): 19.3 µM (inactive)
- GI50 (CAKI-1): 52.5 µM (inactive)
- GI50 (CCRF-CEM): 31.6 µM (inactive)
- GI50 (COLO 205): 37.3 µM (inactive)
- GI50 (DU-145): 50.4 µM (inactive)
- GI50 (HCT-116): 34.8 µM (inactive)
- GI50 (HL-60): 23.5 µM (inactive)
- GI50 (HOP-62): 62.5 µM (inactive)
- GI50 (HOP-92): 45.5 µM (inactive)
- GI50 (HT-29): 27.3 µM (inactive)
- GI50 (Hs-578T): 47.5 µM (inactive)
- GI50 (IGROV-1): 50.1 µM (inactive)
- GI50 (K562): 22.7 µM (inactive)
- GI50 (KM12): 36.4 µM (inactive)
- GI50 (LOX IMVI): 13.3 µM (inactive)
- GI50 (M14): 35.5 µM (inactive)
- GI50 (MCF7): 25.6 µM (inactive)
- GI50 (MDA-MB-231): 23.4 µM (inactive)
- GI50 (MDA-MB-435): 27 µM (inactive)
- GI50 (MDA-N): 15.7 µM (inactive)
- GI50 (MOLT-4): 25.1 µM (inactive)
- GI50 (Malme-3M): > 100 µM (inactive)
- GI50 (NCI-H226): 23.3 µM (inactive)
- GI50 (NCI-H23): 42.8 µM (inactive)
- GI50 (NCI-H460): 42.2 µM (inactive)
- GI50 (NCI-H522): 30.8 µM (inactive)
- GI50 (NCI/ADR-RES): 57.4 µM (inactive)
- GI50 (OVCAR-3): 70 µM (inactive)
- GI50 (OVCAR-4): > 10 µM (inactive)
- GI50 (OVCAR-5): > 100 µM (inactive)
- GI50 (OVCAR-8): 36.4 µM (inactive)
- GI50 (PC-3): 18.3 µM (inactive)
- GI50 (RPMI-8226): 27.5 µM (inactive)
- GI50 (RXF 393): 23.3 µM (inactive)
- GI50 (SF-268): 28.6 µM (inactive)
- GI50 (SF-295): 25.5 µM (inactive)
- GI50 (SF-539): 23.3 µM (inactive)
- GI50 (SK-MEL-28): 26.2 µM (inactive)
- GI50 (SK-MEL-5): 26.9 µM (inactive)
- GI50 (SN12C): 17.6 µM (inactive)
- GI50 (SNB-19): > 100 µM (inactive)
- GI50 (SNB-75): 23.9 µM (inactive)
- GI50 (SR): 24.1 µM (inactive)
- GI50 (SW-620): 46 µM (inactive)
- GI50 (T47D): > 10 µM (inactive)
- GI50 (TK-10): > 100 µM (inactive)
- GI50 (U-251): 30.3 µM (inactive)
- GI50 (UACC-257): 18.5 µM (inactive)
- GI50 (UACC-62): 18.9 µM (inactive)
- GI50 (UO-31): 58.5 µM (inactive)
